Series [1] concerns Candida albicans ATCC 10231. Type of series: cell-based. The note with it: ATCC 10231, 24 h.
The test system of series [2] is Staphylococcus aureus ATCC 33591. Type of series: cell-based. The note with it: ATCC 33591, 24 h. The gist of the method:
(§1)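 MBEC, resazurin read-out (A570/A600): lowest concentration giving ≤10 ± 0.5% dye reduction relative to positive (100%) and negative (0%) controls. Preformed 24 h biofilms, MHB, inoculum 5.0 × 10^5 CFU/mL; compounds 1–512 μg/mL, 24 h, 37 °C. Triplicate.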

For series [3], the system named is Candida glabrata ATCC 15126. Type of series: cell-based. As to conditions: ATCC 15126, 24 h.
In series [4] the test system is Enterococcus faecium ATCC 700221. The series is classed as cell-based. As to conditions: ATCC 700221, 24 h. The gist of the method: as §1
For series [5], the system named is Staphylococcus aureus ATCC 25923. The series is classed as cell-based. As to conditions: ATCC 25923, 24 h. The gist of the method:
as §1

Series [6] has as its system Acinetobacter baumannii ATCC BAA 1605. Type of series: cell-based. The note with it: ATCC BAA 1605, 24 h. The gist of the method: as §1
For series [7], the system named is Pseudomonas aeruginosa ATCC 9027. Type of series: cell-based. As to conditions: ATCC 9027, 24 h. An outline of the steps: as §1
Series [8] relates to Klebsiella pneumoniae ATCC 700603. The series is classed as cell-based. As to conditions: ATCC 700603, 24 h. An outline of the steps: as §1
The subject of series [9] is Klebsiella aerogenes ATCC 13048. The series is classed as cell-based. The note with it: ATCC 13048, 24 h. The gist of the method: as §1
For series [10], the system named is Staphylococcus aureus ATCC 33591. The note with it: ATCC 33591, 24 h.
Series [11] in a line: Lipopeptide hydrophobicity by RP-HPLC (adjusted retention time). Type of series: physicochemical. The note with it: RP-HPLC, 20–65% acetonitrile over 30 min, indicator of hydrophobicity. The gist of the method:
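Analytical RP-HPLC on an embedded-polar-group RP-18 column, 20–65% acetonitrile gradient in water (both 0.1% TFA) over 30 min at 0.5 mL/min, 25.0 °C. Peptides at 1 mg/mL in 0.1% TFA water, UV detection at 214 nm. Triplicate runs.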

The structures appear in SMILES notation. ≈ marks a conversion by molar mass, not a printed value. Where a SMILES comes first, the peptide text is derived from it. Side-chain parts run from the residue outwards. The star is where a group is joined. Decanoyl = CCCCCCCCCC(=O)*; Octanoyl = CCCCCCCC(=O)*

For the molecule `CCCCCCCC(=O)N[C@@H](Cc1ccccc1)C(=O)N[C@@H](CCCNC(=N)N)C(=O)N[C@@H](CCCNC(=N)N)C(=O)NCCCC[C@H](NC(=O)[C@H](CCCNC(=N)N)NC(=O)[C@H](CCCNC(=N)N)NC(=O)[C@H](Cc1ccccc1)NC(=O)CCCCCCC)C(N)=O` [Compound B5] (Octanoyl-FRRK([Arg-Arg-Phe-Octanoyl])-NH2), in series [1], the “MBEC Candida albicans ATCC 10231” value amounted to 32 µg/mL. Moreover, the “MBEC Staphylococcus aureus ATCC 33591” value in series [2] is on record as 4 µg/mL. Also, in series [3], the “MBEC Candida glabrata ATCC 15126” value turned out to be 256 µg/mL. In addition, the “MBEC Enterococcus faecium ATCC 700221” value in series [4] was 8 µg/mL. For the same molecule, the “MBEC Staphylococcus aureus ATCC 25923” value in series [5] was 16 µg/mL. Further, the “MBEC Acinetobacter baumannii ATCC BAA 1605” value in series [6] was 256 µg/mL. Besides, in series [7], the “MBEC Pseudomonas aeruginosa ATCC 9027” value was found to be 512 µg/mL. In [8], the “MBEC Klebsiella pneumoniae ATCC 700603” value is given as 256 µg/mL. Further, the “MBEC Klebsiella aerogenes ATCC 13048” value in series [9] amounted to 256 µg/mL. The “MIC Staphylococcus aureus ATCC 33591” value in series [10] is given as 4 µg/mL (≈ 3.04 µM). Also, the “Adjusted Retention Time” value in series [11] amounted to 15.19 min.
For the molecule `CCCCCCCCCC(=O)N[C@@H](CCCNC(=N)N)C(=O)N[C@@H](CCCNC(=N)N)C(=O)NCCCC[C@H](NC(=O)[C@H](CCCNC(=N)N)NC(=O)[C@H](CCCNC(=N)N)NC(=O)CCCCCCCCC)C(N)=O` [Compound B2] (Decanoyl-Arg-Arg-Lys([Arg-Arg-Decanoyl])-NH2), in [1], the “MBEC Candida albicans ATCC 10231” value is recorded as 32 µg/mL. The “MBEC Staphylococcus aureus ATCC 33591” value in series [2] was 4 µg/mL. Also, the “MBEC Candida glabrata ATCC 15126” value in [3] is recorded as 512 µg/mL. Also, the “MBEC Enterococcus faecium ATCC 700221” value in series [4] came to 4 µg/mL. Further, the “MBEC Staphylococcus aureus ATCC 25923” value in series [5] is 8 µg/mL. Moreover, the “MBEC Acinetobacter baumannii ATCC BAA 1605” value in series [6] worked out at 128 µg/mL. For the same molecule, the “MBEC Pseudomonas aeruginosa ATCC 9027” value in series [7] amounted to 512 µg/mL. Further, the “MBEC Klebsiella pneumoniae ATCC 700603” value in series [8] was 256 µg/mL. Moreover, in series [9], the “MBEC Klebsiella aerogenes ATCC 13048” value is 256 µg/mL. For the same molecule, in series [10], the “MIC Staphylococcus aureus ATCC 33591” value was 1 µg/mL (≈ 0.927 µM). In series [11], the “Adjusted Retention Time” value was 13.73 min.

The record behind these values is paper PMC8036666, “Biological and Physico-Chemical Characteristics of Arginine-Rich Peptide Gemini Surfactants with Lysine and Cystine Spacers” (International Journal of Molecular Sciences, 2021).
